Measured values from patent US10709692B2, “Isoxazolidine derived inhibitors of receptor interacting protein kinase 1 (RIPK1)” (Denali Therapeutics Inc., priority 2015, dated 2020).
Where “and” joins values, the source holds several entries; their conditions need not be identical. Equal values may be shown once.

Biological target: T1, receptor interacting protein kinase 1 (GST-hRIPK1 (8-327)) (Homo sapiens, UniProt Q13546)
T1 construct: GST-hRIPK1 (8-327) enzyme was generated by Proteros GmbH by Baculovirus expression system
T1 sequence (Q13546 8-327): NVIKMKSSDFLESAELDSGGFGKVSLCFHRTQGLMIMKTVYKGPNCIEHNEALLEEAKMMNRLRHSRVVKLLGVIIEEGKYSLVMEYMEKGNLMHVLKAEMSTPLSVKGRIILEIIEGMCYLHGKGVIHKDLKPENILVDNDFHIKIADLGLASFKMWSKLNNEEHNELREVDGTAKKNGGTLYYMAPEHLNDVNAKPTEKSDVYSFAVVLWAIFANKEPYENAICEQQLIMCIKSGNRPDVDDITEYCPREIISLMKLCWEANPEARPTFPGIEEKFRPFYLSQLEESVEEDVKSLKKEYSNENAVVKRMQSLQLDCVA
Assay: Fluorescent Polarization Binding (FP Binding) assay
Conditions: 10 nM GST-hRIPK1 (8-327), 5 nM fluorescent-labeled ligand, 30 min at RT
Procedure, shortened: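 Displacement of 5 nM fluorescent ligand from 10 nM GST-hRIPK1 (8-327), 30 min at room temperature in pH 7.5 HEPES buffer, 1% DMSO. Fluorescence polarization read (ex 531/em 595 nm); IC50 fitted from percent inhibition and averaged over at least two independent experiments.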

Row | SMILES | IC50
1 | C[C@](O)(C(=O)N1OCC[C@H]1c1ccc(F)nc1)C(F)(F)F [Compound 166, (2S)-3,3,3-trifluoro-1-[(3S)-3-(6-fluoropyridin-3-yl)-1,2-oxazolidin-2-yl]-2-hydroxy-2-methylpropan-1-one] | 1000 to 10000 nM
2 | O=C(C(C1CC1)C1CC1)N1OCC[C@H]1c1ccc(F)nc1 [Compound 167, 2,2-dicyclopropyl-1-[(3S)-3-(6-fluoropyridin-3-yl)-1,2-oxazolidin-2-yl]ethan-1-one] | < 1000 nM
3 | O=C(N1OCC[C@H]1c1ccc(F)nc1)C1(C(F)F)CCC1 [Compound 168, 5-[(3S)-2-[1-(difluoromethyl)cyclo-butanecarbonyl]-1,2-oxazolidin-3-yl]-2-fluoropyridine] | < 1000 nM
4 | CC(C)(C(=O)N1OCC[C@H]1c1ccc(F)nc1)C(F)F [Compound 169, 3,3-difluoro-1-[(3S)-3-(6-fluoropyridin-3-yl)-1,2-oxazolidin-2-yl]-2,2-dimethylpropan-1-one] | < 1000 nM
5 | O=C(N1OCC[C@H]1c1ccc(F)nc1)C1(C(F)F)CC1 [Compound 170, 5-[(3S)-2-[1-(difluoromethyl)cyclo-propanecarbonyl]-1,2-oxazolidin-3-yl]-2-fluoropyridine] | < 1000 nM
6 | CC(C)(CC#N)C(=O)N1OCC[C@H]1c1ccc(F)cc1 [Compound 171, 4-[(3S)-3-(4-fluorophenyl)-1,2-oxazolidin-2-yl]-3,3-dimethyl-4-oxobutanenitrile] | < 1000 nM and 11 nM
7 | N#CC1(C(=O)N2OCC[C@H]2c2ccc(F)cc2)CC2(COC2)C1 [Compound 172, 6-[(3S)-3-(4-fluorophenyl)-1,2-oxazolidine-2-carbonyl]-2-oxaspiro[3.3]heptane-6-carbonitrile] | < 1000 nM
8 | [2H]C([2H])([2H])C(C(=O)N1OCC[C@H]1c1ccc(F)cc1)(C([2H])([2H])[2H])C([2H])([2H])[2H] [Compound 173, 1-[(3S)-3-(4-fluorophenyl)-1,2-oxazolidin-2-yl]-2,2-bis(^2H3)methyl(^2H3) propan-1-one] | < 1000 nM
9 | CC(C)(C)C(=O)N1OCC[C@H]1c1cncc(Cl)c1 [Compound 174, 1-[(3S)-3-(5-chloropyridin-3-yl)-1,2-oxazolidin-2-yl]-2,2-dimethylpropan-1-one] | < 1000 nM
10 | CC(C)(C)C(=O)N1OCC[C@H]1c1ccnc(C(F)F)c1 [Compound 175, 1-[(3S)-3-[2-(difluoromethyl)pyridin-4-yl]-1,2-oxazolidin-2-yl]-2,2-dimethylpropan-1-one] | < 1000 nM
11 | CC(C)(COC(F)(F)F)C(=O)N1OCC[C@H]1c1ccc(F)cc1 [Compound 176, 1-[(3S)-3-(4-fluorophenyl)-1,2-oxazolidin-2-yl]-2,2-dimethyl-3-(trifluoromethoxy) propan-1-one] | < 1000 nM
12 | CC(C)(COC(F)(F)F)C(=O)N1OCC[C@H]1c1cncc(Cl)c1 [Compound 177, 1-[(3S)-3-(5-chloropyridin-3-yl)-1,2-oxazolidin-2-yl]-2,2-dimethyl-3-(trifluoromethoxy) propan-1-one] | < 1000 nM
13 | CC(C)(Cn1cccn1)C(=O)N1OCC[C@H]1c1ccc(F)cc1 [Compound 178, 1-[(3S)-3-(4-fluorophenyl)-1,2-oxazolidin-2-yl]-2,2-dimethyl-3-(1H-pyrazol-1-yl)propan-1-one] | < 1000 nM
14 | CC(C)(CC#N)C(=O)N1OCC[C@H]1c1ccc(C#N)cc1 [Compound 181, 4-[(3S)-2-(3-cyano-2,2-dimethylpropanoyl)-1,2-oxazolidin-3-yl]benzonitrile] | < 1000 nM
15 | CC(C)(C#N)C(=O)N1OCC[C@H]1c1ccc(F)cc1 [Compound 182, 3-[(3S)-3-(4-fluorophenyl)-1,2-oxazolidin-2-yl]-2,2-dimethyl-3-oxopropanenitrile] | < 1000 nM
16 | N#Cc1ccc([C@@H]2CCON2C(=O)C2(C(F)F)CC2)cc1 [Compound 187, 4-[(3S)-2-[1-(difluoromethyl)cyclo-propanecarbonyl]-1,2-oxazolidin-3-yl]benzonitrile] | < 1000 nM
17 | CC(C)(C)C(=O)N1OCC[C@H]1c1cc[nH]n1 [Compound 190, 2,2-dimethyl-1-[(3S)-3-(1H-pyrazol-5-yl)-1,2-oxazolidin-2-yl]propan-1-one] | < 1000 nM

The remaining lines, values ahead:

Row | IC50 | SMILES
18 | < 1000 nM | C[C@@]1(C(=O)N2OCC[C@H]2c2ccc(F)cc2)CCC(=O)N1 [Compound 191, (5S)-5-[(3S)-3-(4-fluorophenyl)-1,2-oxazolidine-2-carbonyl]-5-methylpyrrolidin-2-one]
19 | < 1000 nM | CC(C)(C)C(=O)N1OCC[C@H]1c1cc(C#N)ccn1 [Compound 192, 2-[(3S)-2-(2,2-dimethylpropanoyl)-1,2-oxazolidin-3-yl]pyridine-4-carbonitrile]
20 | < 1000 nM and 5 nM | CC(C)(C(=O)N1OCC[C@H]1c1ccc(F)cc1)C1CC1 [Compound 193, 2-cyclopropyl-1-[(3S)-3-(4-fluorophenyl)-1,2-oxazolidin-2-yl]-2-methylpropan-1-one]
21 | 1000 to 10000 nM | CC(C)(C(=O)N1OCC[C@H]1c1ccc(F)cc1)S(C)(=O)=O [Compound 194, 1-[(3S)-3-(4-fluorophenyl)-1,2-oxazolidin-2-yl]-2-methanesulfonyl-2-methylpropan-1-one]
22 | < 1000 nM and 10 nM | Cc1ncc([C@@H]2CCON2C(=O)C(C)(C)C(F)F)cc1F [Compound 195, 3,3-difluoro-1-[(3S)-3-(5-fluoro-6-methylpyridin-3-yl)-1,2-oxazolidin-2-yl]-2*2-dimethylpropan-1-one]
23 | < 1000 nM and 9 nM | Cc1ncc([C@@H]2CCON2C(=O)C(C)(C)CC#N)cc1F [Compound 196, 4-[(3S)-3-(5-fluoro-6-methylpyridin-3-yl)-1,2-oxazolidin-2-yl]-3,3-dimethyl-4-oxobutanenitrile]
24 | < 1000 nM and 51 nM | Cn1cc([C@@H]2CCON2C(=O)C(C)(C)C(F)F)cn1 [Compound 198, (S)-3,3-difluoro-2,2-dimethyl-1-(3-(1-methyl-1H-pyrazol-4-yl)isoxazolidin-2-yl)propan-1-one]
25 | < 1000 nM and 9 nM | CC(C)(C(=O)N1OCC[C@H]1c1cncc(C#N)c1)C(F)F [Compound 200, (S)-5-(2-(3,3-difluoro-2,2-dimethylpropanoyl)isoxazolidin-3-yl)nicotinonitrile]
26 | < 1000 nM | Cc1ccc([C@@H]2CCON2C(=O)C(C)(C)C(F)F)cn1 [Compound 202, 3,3-difluoro-2,2-dimethyl-1-[(3S)-3-(6-methylpyridin-3-yl)-1,2-oxazolidin-2-yl]propan-1-one]
27 | < 1000 nM | CC(C)(C(=O)N1OCC[C@@H]1c1ccc(C#N)s1)C(F)F [Compound 203, 5-[(3R)-2-(3,3-difluoro-2,2-dimethylpropanoyl)-1,2-oxazolidin-3-yl]thiophene-2-carbonitrile]
28 | < 1000 nM | CC(C)(C(=O)N1OCC[C@H]1c1ccc(C#N)s1)C(F)F [Compound 204, 5-[(3S)-2-(3,3-difluoro-2,2-dimethylpropanoyl)-1,2-oxazolidin-3-yl]thiophene-2-carbonitrile]
29 | < 1000 nM | Cn1cc([C@@H]2CCON2C(=O)C(C)(C)C)cc1C#N [Compound 205, 4-[(3S)-2-(2,2-dimethylpropanoyl)-1,2-oxazolidin-3-yl]-1-methyl-1 h-pyrrole-2-carbonitrile]
30 | < 1000 nM | Cc1ncc([C@@H]2CCON2C(=O)C(C)(C)C)cc1C#N [Compound 219]
